Legend:
[1] = system: genotype A, "Long" strain RSV; test: RSV-A assay (CPE, ATPlite readout in Hep-2 cells); type: cell-based; conditions: human respiratory syncytial virus, HEp-2, Hep-2 cells, genotype A "Long" strain RSV, MOI 0.1; read-out: Human RSV-A (“Long” strain) EC50
Summary of the method: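 Protection from RSV-induced cytopathic effect, measured as ATPlite luminescence after 5 days, gave EC50 values. Assay used genotype A Long strain at MOI 0.1 on Hep-2 cells seeded at 8,000/well in DMEM growth media with 10% FBS; compounds tested as 2-fold dilutions in duplicate.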

[2] = system: recombinant HMPV CAN97-83 (MPV-GFP1); test: HMPV antiviral assay (MPV-GFP1 eGFP fluorescence in Vero E6 cells); type: cell-based; conditions: human metapneumovirus, Vero C1008, 120 h, read-out: HMPV EC50
Procedure: HMPV antiviral activity was evaluated using a recombinant version of HMPV CAN97-83 engineered to contain the coding sequence for enhanced green fluorescence protein (eGFP) in the 3′ end of the virus genome (MPV-GFP1, ViraTree). Vero E6 cells ([…]) were seeded at a density of 12,000 cells/100 μL/well into 96-well cell plates one day prior to the assay. On the day of screening, the cell culture medium was aspirated from the wells and cells were washed twice with serum-free Eagle's Modified Essential Medium (EMEM, ATCC #) containing 1% penicillin-streptomycin (Invitrogen) (SF-EMEM). Cell washes were performed by dispensing 100 μL SF-EMEM per well and immediately aspirating the wash medium from the well. Following the second wash step, serum-free OptiMEM (Invitrogen, Cat No.) (SF-OptiMEM) containing 0.5 μg/mL TPCK-Trypsin (VENDOR) and 1% penicillin-streptomycin was added to the cells at 50 μL/well. Compounds were added into the 96-well plates using a JANUS automated liquid handling system (VENDOR). Compounds were initially diluted 1:50 into an intermediate 96-well plate containing SF-OptiMEM prior to transfer to the assay plate (25 μL/well). Each of the test compounds were tested in duplicate wells at final concentrations starting from 8 μM or 2 μM using ½ stepwise dilutions for a total of 8 points. Virus infection was performed by preparing a working stock of MPV-GFP1 at a multiplicity of infection (MOI) equal to 0.05/25 μL and aliquoting 25 μL of virus inoculum to the compound and positive control wells. SF-OptiMEM was added (25 μL/well) to the appropriate wells to serve as a virus-free negative control for the assay. The final DMSO concentration of all wells is 0.5%. Plates were incubated at 32° C., 5% CO2 for 5 days.
After 5 days incubation, eGFP fluorescence intensity was measured at […] using a Spectramax i3X plate reader (VENDOR). Percent viral inhibition was calculated using the following equation: y=[[…]−(XQ/XP)]×100 Where XQ is the fluorescence intensity measured in a well containing recombinant MPV-GFP1-infected, compound-treated cells and XP is the average fluorescence intensity measured in the wells containing untreated cells infected with recombinant virus. EC50 values were then calculated by non-linear regression using a four parameter curve logistic equation. The curve fit model employed was XLFit Dose Response One Site Model 200: y=(A+(B/(1+((x/C)^D)))) Where A is the minimum y value, B is the maximum y value, C is the log EC50 value, and D is the slope factor. […] EC50 ranges are as follows: A<0.5 μM; B>0.5 μM.

Structure (SMILES)	EC50 [1] [nM]	EC50 [2] [nM]
C[C@]1(C(N)=O)COc2c1cc([C@@](O)(CNC(=O)c1ccc3cnccc3c1)C(F)(F)F)nc2-c1ccc(F)cc1 [Example 232]	< 200	> 500
Cc1cnc2c(NC(=O)c3coc(C)n3)cc(C(=O)NC[C@](O)(c3cc4c(c(-c5ccc(F)cc5)n3)OC[C@]4(C)C(N)=O)C(F)(F)F)cc2c1 [Example 418]	< 200	< 500
C[C@]1(C(=O)NCCCO)COc2c1cc([C@@](O)(CNC(=O)c1cc(OC3CC3)c3ncccc3c1)C(F)(F)F)nc2-c1ccc(F)cc1 [Example 485]	< 200	< 500
C[C@]1(C(N)=O)COc2c1cc([C@@](O)(CNC(=O)c1cc(OC(F)(F)F)c3nc(N)sc3c1)C(F)(F)F)nc2-c1ccc(F)cc1 [Example 541]	< 200	> 500
C[C@]1(C(=O)NCCOC(N)=O)COc2c1cc([C@@](O)(CNC(=O)c1cc(OC3CC3)c3ncccc3c1)C(F)(F)F)nc2-c1ccc(F)cc1 [Example 460]	< 200	> 500
C[C@]1(C(N)=O)COc2c1cc([C@@](O)(CNC(=O)c1cc(OC3CC3)c3nc(CO)ccc3c1)C(F)(F)F)nc2-c1ccc(F)cc1 [Example 406]	< 200	> 500
COc1cc(C(=O)NC[C@](O)(c2cc3c(c(-c4ccc(F)cc4)n2)OC[C@]3(C)C(=O)NO)C(F)(F)F)cc2cccnc12 [Example 53]	< 200	> 500
C[C@]1(C(N)=O)COc2c1cc([C@@](O)(CNC(=O)c1ccc3[nH]ncc3c1)C(F)(F)F)nc2-c1ccc(F)cc1 [Example 588]	< 200	> 500
C[C@]1(C(=O)NCCC(N)=O)COc2c1cc([C@@](O)(CNC(=O)c1cc(OC3CC3)c3ncccc3c1)C(F)(F)F)nc2-c1ccc(F)cc1 [Example 477]	< 200	> 500
COc1cc(C(=O)NC[C@](O)(c2cc3c(c(-c4ccc(F)c(Cl)c4)n2)OC[C@]3(C)C(N)=O)C2CC2)cc2cc(C(F)(F)F)cnc12 [Example 536]	< 200	< 500
Cc1cnc2c(NC(=O)c3ncco3)cc(C(=O)NC[C@](O)(c3cc4c(c(-c5ccc(F)cc5)n3)OC[C@]4(C)C(N)=O)C(F)(F)F)cc2c1 [Example 561]	< 200	< 500
C[C@]1(C(N)=O)COc2c1cc([C@@](O)(CNC(=O)c1cc(Nc3ccncc3)c3ncccc3c1)C(F)(F)F)nc2-c1ccc(F)cc1 [Example 336]	< 200	> 500
COc1cc(C(=O)NC[C@](O)(c2cc3c(c(-c4ccc(F)cc4)n2)OC[C@]3(C)C(N)=O)C(F)(F)F)ccc1OC[C@@H](C)O [Example 290]	< 200	< 500
C[C@]1(C(N)=O)COc2c1cc([C@@](O)(CNC(=O)c1ccc3ncccc3c1)C(F)(F)F)nc2-c1ccc(F)cc1 [Example 269]	< 200	< 500
COc1cc(C(=O)NC[C@](O)(c2cc3c(c(-c4ccc(F)cc4)n2)OC[C@]3(C)C(N)=O)C(F)(F)F)cc2cc(Cl)cnc12 [Example 520]	< 200	< 500
COc1cccc2[nH]c(C(=O)NC[C@](O)(c3cc4c(c(-c5ccc(F)cc5)n3)OC[C@]4(C)C(N)=O)C(F)(F)F)cc12 [Example 595]	< 200	< 500
C[C@]1(C(N)=O)COc2c1cc([C@@](O)(CNC(=O)c1cc(OC(F)F)c3nc(N)sc3c1)C1CC1)nc2-c1ccc(F)c(Cl)c1 [Example 540]	< 200	< 500
COc1cc(C(=O)NC[C@](O)(c2cc3c(c(-c4ccc(F)c(Cl)c4)n2)OC[C@]3(C)C(N)=O)C(F)(F)F)cc2sc(N)nc12 [Example 433]	< 200	< 500
C[C@]1(C(N)=O)COc2c1cc([C@@](O)(CNC(=O)c1cc(OC3CC3)c3ncc(Cl)cc3c1)C(F)(F)F)nc2-c1ccc(F)cc1 [Example 521]	< 200	< 500
COc1cc(C(=O)NC[C@](O)(c2cc3c(c(-c4ccc(F)c(Cl)c4)n2)OC[C@]3(C)C(N)=O)C2CC2)cc2cc(Cl)cnc12 [Example 529]	< 200	< 500
C[C@]1(C(=O)NCCCN)COc2c1cc([C@@](O)(CNC(=O)c1cc(OC3CC3)c3ncccc3c1)C(F)(F)F)nc2-c1ccc(F)cc1 [Example 464]	< 200	> 500

Structure (SMILES)	EC50 [1] [nM]	EC50 [2] [nM]
COc1cc(C(=O)NC[C@](O)(c2cc3c(c(-c4ccc(F)cc4)n2)OC[C@]3(C)CC#N)C(F)(F)F)cc2cccnc12 [Example 74]	< 200	< 500
Cc1cnc2c(NC(=O)c3nc(C)co3)cc(C(=O)NC[C@](O)(c3cc4c(c(-c5ccc(F)cc5)n3)OC[C@]4(C)C(N)=O)C(F)(F)F)cc2c1 [Example 623]	< 200	> 500
COc1cc(C(=O)NC[C@](O)(c2cc3c(c(-c4ccc(F)cc4)n2)OC[C@]3(C)C(N)=O)C(F)(F)F)cc2cc(C(F)(F)F)cnc12 [Example 557]	< 200	< 500
COc1cc(C(=O)NC[C@](O)(c2cc3c(c(-c4ccc(F)cc4)n2)OC[C@]3(C)C(N)=O)C2CC2)cc2cc(Cl)cnc12 [Example 528]	< 200	< 500
Cc1cnc2c(NC(=O)NC3CC3)cc(C(=O)NC[C@](O)(c3cc4c(c(-c5ccc(F)cc5)n3)OC[C@]4(C)C(N)=O)C(F)(F)F)cc2c1 [Example 417]	< 200	< 500
C[C@]1(C(=O)NC[C@@H](O)CO)COc2c1cc([C@@](O)(CNC(=O)c1cc(OC3CC3)c3ncccc3c1)C(F)(F)F)nc2-c1ccc(F)cc1 [Example 492]	< 200	> 500
C[C@]1(C(N)=O)COc2c1cc([C@@](O)(CNC(=O)c1cc(O)c3ncccc3c1)C(F)(F)F)nc2-c1ccc(F)cc1 [Example 363]		< 500
C[C@]1(C(N)=O)COc2c1cc([C@@](O)(CNC(=O)c1cc(OC3CC3)c3ncccc3c1)C(F)(F)F)nc2-c1ccc(F)c(C(F)(F)F)c1 [Example 85]	< 200	< 500
COc1cc(C(=O)NC[C@](O)(c2cc3c(c(-c4ccc(F)cc4)n2)OC[C@]3(F)C(N)=O)C(F)(F)F)ccc1OC1CC1 [Example 666]	< 200	
C[C@]1(C(N)=O)COc2c1cc([C@@](O)(CNC(=O)c1ccc(OC3CC3)c(N3CCCCC3)c1)C(F)(F)F)nc2-c1ccc(F)cc1 [Example 134]	> 200	
C[C@]1(C(N)=O)COc2c1cc([C@@](O)(CNC(=O)c1ccc(-c3cccnc3)c(OC3CC3)c1)C(F)(F)F)nc2-c1ccc(F)cc1 [Example 141]	< 200	
COc1cc(C(=O)NC[C@](O)(c2cc3c(c(-c4ccc(F)cc4)n2)OC[C@]3(C)C(N)=O)C(F)(F)F)cc2c1NC(=O)CC2 [Example 60]	< 200	
C[C@]1(C(N)=O)COc2c1cc([C@@](O)(CNC(=O)c1cc(Nc3cccnn3)c3ncccc3c1)C(F)(F)F)nc2-c1ccc(F)cc1 [Example 347]	< 200	
C[C@]1(C(N)=O)COc2c1cc([C@@](O)(CNC(=O)c1cc(-c3ccncc3)c3ncccc3c1)C(F)(F)F)nc2-c1ccc(F)cc1 [Example 351]	< 200	
CC(C)(O)CNC(=O)Nc1cc(C(=O)NC[C@](O)(c2cc3c(c(-c4ccc(F)cc4)n2)OC[C@]3(C)C(N)=O)C(F)(F)F)cc2cccnc12 [Example 412]	< 200	
COc1cc(C(=O)NC[C@](O)(c2cc3c(c(-c4ccc(F)cc4)n2)OC[C@]3(C)C(N)=O)C(F)(F)F)ccc1-c1nncs1 [Example 201]	< 200	
C[C@]1(C(N)=O)COc2c1cc([C@@](O)(CNC(=O)c1cc(NC(=O)C3CC3)c3ncccc3c1)C(F)(F)F)nc2-c1ccc(F)cc1 [Example 392]	< 200	
C[C@]1(C(N)=O)COc2c1cc([C@@](O)(CNC(=O)c1ccc3ncccc3n1)C(F)(F)F)nc2-c1ccc(F)cc1 [Example 238]	> 200	
C[C@]1(C(N)=O)COc2c1cc([C@@](O)(CNC(=O)c1cc(OC(F)(F)F)c3ncccc3c1)C(F)(F)F)nc2-c1ccc(F)cc1 [Example 278]	< 200	
C[C@]1(C(N)=O)COc2c1cc([C@@](O)(CNC(=O)c1cc(O)c3nc(N)sc3c1)C(F)(F)F)nc2-c1ccc(F)cc1 [Example 442]	< 200	

— US11505558B1, “Antiviral heterocyclic compounds” (Enanta Pharmaceuticals, Inc., priority 2019, dated 2022)
